# What was measured:
# [1] = Body weight in the N87 study of the Example 1 drug; format: in vivo, mouse (BALB/c nude); conditions: 0.06mg i.v. (tail vein) twice per week for 5 weeks
# [2] = test system: N87 human gastric carcinoma; experiment: Comparative in-vivo efficacy test in the N87 mouse gastric carcinoma model (drugs of Example 5 and Example 7); design: species or system mouse (BALB/c-nu)
# Description: • Species/strain: BALB/c nude (BALB/c-nu) • Age: 6-8 weeks • Sex: Male • Body weight: 17-19 g
# 1).Inoculation and grouping: For the N87 human gastric carcinoma model, male BALB/c-nu mice (17.0-19.0 g) were used.Under aseptic conditions, N87 tumor tissue was excised and cut into 2.0 mm × 2.0 mm × 2.0 mm tumor blocks, which were implanted subcutaneously into the left axillary dorsal region of each nude mouse. The day of implantation was designated as Day 0 (D0).When tumor volume reached approximately 250.0 mm^3 (D6), animals with poor tumor take were excluded, and the remaining animals were randomized into groups according to tumor volume; dosing commenced on the day of randomization. 2).Dosing regimen: Table 27
# Tumor size is measured three times per week using a vernier caliper. The long diameter (a) and short diameter (b) are recorded. Tumor volume is calculated as: V=0.5×a×b^2
# (§1) RTV = Vt /V0 , [formula] where V0 is the tumor volume at grouping/first dosing (D0) and Vt is the tumor volume at each measurement time point.
# [3] = Body weight and general condition in the U251 study; format: in vivo, mouse (BALB/c nude); conditions: Group 3, around D10 post-dosing; 6mg/Kg i.v. twice weekly; possibly due to drug toxicity
# A549 lung carcinoma [4] = experiment: In-vivo efficacy study in the A549 mouse lung carcinoma model (drugs of Example 6 and Example 20); design: species or system mouse (BALB/cAnSlacNifdc-nu); conditions: for Tumor growth inhibition rate (TGI, %) at different days post-inoculation: 0.12mg/20g i.v. (tail vein) once weekly, 3 administrations
# Description: • Species/strain: BALB/cAnSlacNifdc-nu • Sex: Male • Body weight: 17-21 g
# 1).Inoculation and grouping: For the A549 mouse lung carcinoma model, male BALB/cAnSlacNifdc-nu mice weighing 17.0-21.0 g were used. Under aseptic conditions, A549 tumor tissue was excised and cut into 2.0 mm × 2.0 mm × 2.0 mm tumor blocks, which were implanted subcutaneously into the left axillary dorsal region of nude mice. The day of implantation was designated as Day 0 (D0).When the tumor volume reached approximately 150.0 mm^3 (D7), animals were randomized by tumor volume into four groups: A (vehicle control), B, C, and D (drug), with 8 animals per group. On the day of randomization, all groups began intravenous (tail-vein) dosing. Groups A, B, C, and subgroup D1 were dosed once weekly for a total of 3 administrations; subgroup D2 was dosed twice weekly for a total of 6 administrations. 2).Dosing regimen: Table 34
# (§2) Tumor size is measured twice per week using a vernier caliper. The long diameter (a) and short diameter (b) are recorded. Tumor volume is calculated as: V=0.5×a×b^2.
# as §1
# A549 lung carcinoma [5] = experiment: In-vivo efficacy study in the A549 mouse lung carcinoma model (drug of Example 3); design: species or system mouse (BALB/c-nu)
# Experimental: • Species/strain: BALB/c nude (BALB/c-nu) • Age: 6-7 weeks • Sex: Male • Body weight: 16-18 g
# The day of implantation was designated as Day 0 (D0).When the tumor volume reached approximately 100.0 mm^3 (D5), animals with poor tumor take were excluded, the remaining animals were randomized by tumor volume, and dosing commenced on the day of randomization. 2).Dosing regimen: Table 31
# as §2
# RTV = Vt /V0 , [formula] where V0 is the tumor volume at grouping/first dosing (D0), and Vt is the tumor volume at each measurement time point.
# [6] = Body weight in the A549 study of the Example 3 drug; format: in vivo, mouse (BALB/c-nu)
# [7] = Body weight in the N87 study of the Example 5 drug; format: in vivo, mouse (BALB/c nude); conditions: 0.12mg i.v. (tail vein) once every 5 days, 5 administrations
# [8] = 41 days post-N87 inoculation, 0.12mg i.v. (tail vein) once weekly for 6 weeks
# [9] = end of the study (D29), intravenous administration
# [10] = end of the study (D32 or D25), targeted drug: high- and medium-dose
structure (smiles),measurement,setting,value
"COc1cccc2c1C(=O)c1c(O)c3c(c(O)c1C2=O)C[C@@](O)(C(=O)CO)C[C@@H]3O[C@H]1C[C@H](N)[C@@H](O)[C@H](C)O1 [Epirubicin drug substance (API), Epirubicin]",Body-weight difference between Day 37 and Day 6,[1],0.91 g
same,Tumor weight,[2]; [8],0.62 ± 0.55 g
same,"Tumor-weight inhibition rate, IRTW (%)",[2]; [8],51.74%
same,"Tumor growth inhibition rate (TGI, %) at different post-inoculation days","[2]; Day 10, 0.12mg i.v. (tail vein) once weekly for 6 weeks",41.17%
same,"Tumor growth inhibition rate (TGI, %) at different post-inoculation days","[2]; Day 13, 0.12mg i.v. (tail vein) once weekly for 6 weeks",34.62%
same,"Tumor growth inhibition rate (TGI, %) at different post-inoculation days","[2]; Day 17, 0.12mg i.v. (tail vein) once weekly for 6 weeks",37.16%
same,"Tumor growth inhibition rate (TGI, %) at different post-inoculation days","[2]; Day 20, 0.12mg i.v. (tail vein) once weekly for 6 weeks",35.17%
same,"Tumor growth inhibition rate (TGI, %) at different post-inoculation days","[2]; Day 24, 0.12mg i.v. (tail vein) once weekly for 6 weeks",43.86%
same,"Tumor growth inhibition rate (TGI, %) at different post-inoculation days","[2]; Day 27, 0.12mg i.v. (tail vein) once weekly for 6 weeks",43.86%
same,"Tumor growth inhibition rate (TGI, %) at different post-inoculation days","[2]; Day 31, 0.12mg i.v. (tail vein) once weekly for 6 weeks",44.19%
same,"Tumor growth inhibition rate (TGI, %) at different post-inoculation days","[2]; Day 34, 0.12mg i.v. (tail vein) once weekly for 6 weeks",42.97%
same,"Tumor growth inhibition rate (TGI, %) at different post-inoculation days","[2]; Day 38, 0.12mg i.v. (tail vein) once weekly for 6 weeks",40.97%
same,"Tumor growth inhibition rate (TGI, %) at different post-inoculation days","[2]; Day 41, 0.12mg i.v. (tail vein) once weekly for 6 weeks",51.83%
same,tumor growth inhibition rate calculated from tumor weight and tumor volume,"[2]; end of the study (D41), tail-vein injection",< 60%
same,body weight of the mice (and spontaneous activity),[3],started to decrease
same,"Tumor growth inhibition rate (TGI, %) at different days post-inoculation",A549 lung carcinoma [4]; Day 11,27.01%
same,"Tumor growth inhibition rate (TGI, %) at different days post-inoculation",A549 lung carcinoma [4]; Day 14,45.82%
same,"Tumor growth inhibition rate (TGI, %) at different days post-inoculation",A549 lung carcinoma [4]; Day 18,43.61%
same,"Tumor growth inhibition rate (TGI, %) at different days post-inoculation",A549 lung carcinoma [4]; Day 21,44.97%
same,"Tumor growth inhibition rate (TGI, %) at different days post-inoculation",A549 lung carcinoma [4]; Day 25,46.31%
same,"Tumor growth inhibition rate (TGI, %) at different days post-inoculation",A549 lung carcinoma [4]; Day 29,49.64%
same,T/C,A549 lung carcinoma [4]; [9],greater than 40%
same,tumor growth inhibition rate (calculated based on tumor volume),A549 lung carcinoma [4]; [9],less than 60%
same,"Tumor growth inhibition rate (TGI, %) at different days post-inoculation","A549 lung carcinoma [5]; Day 8, 0.08mg i.v. (tail vein) twice weekly for 5 weeks",19.90%
same,"Tumor growth inhibition rate (TGI, %) at different days post-inoculation","A549 lung carcinoma [5]; Day 8, 0.12mg i.v. (tail vein) twice weekly for 5 weeks",17.42%
same,"Tumor growth inhibition rate (TGI, %) at different days post-inoculation","A549 lung carcinoma [5]; Day 8, 0.14mg i.v. (tail vein) twice weekly for 5 weeks",17.47%
same,"Tumor growth inhibition rate (TGI, %) at different days post-inoculation","A549 lung carcinoma [5]; Day 11, 0.08mg i.v. (tail vein) twice weekly for 5 weeks",17.02%
same,"Tumor growth inhibition rate (TGI, %) at different days post-inoculation","A549 lung carcinoma [5]; Day 11, 0.12mg i.v. (tail vein) twice weekly for 5 weeks",15.55%
same,"Tumor growth inhibition rate (TGI, %) at different days post-inoculation","A549 lung carcinoma [5]; Day 11, 0.14mg i.v. (tail vein) twice weekly for 5 weeks",28.43%
same,"Tumor growth inhibition rate (TGI, %) at different days post-inoculation","A549 lung carcinoma [5]; Day 14, 0.08mg i.v. (tail vein) twice weekly for 5 weeks",-12.27%
same,"Tumor growth inhibition rate (TGI, %) at different days post-inoculation","A549 lung carcinoma [5]; Day 14, 0.12mg i.v. (tail vein) twice weekly for 5 weeks",-4.64%
same,"Tumor growth inhibition rate (TGI, %) at different days post-inoculation","A549 lung carcinoma [5]; Day 14, 0.14mg i.v. (tail vein) twice weekly for 5 weeks",6.41%
same,"Tumor growth inhibition rate (TGI, %) at different days post-inoculation","A549 lung carcinoma [5]; Day 17, 0.08mg i.v. (tail vein) twice weekly for 5 weeks",10.74%
same,"Tumor growth inhibition rate (TGI, %) at different days post-inoculation","A549 lung carcinoma [5]; Day 17, 0.12mg i.v. (tail vein) twice weekly for 5 weeks",28.37%
same,"Tumor growth inhibition rate (TGI, %) at different days post-inoculation","A549 lung carcinoma [5]; Day 17, 0.14mg i.v. (tail vein) twice weekly for 5 weeks",31.81%
same,"Tumor growth inhibition rate (TGI, %) at different days post-inoculation","A549 lung carcinoma [5]; Day 22, 0.08mg i.v. (tail vein) twice weekly for 5 weeks",10.11%
same,"Tumor growth inhibition rate (TGI, %) at different days post-inoculation","A549 lung carcinoma [5]; Day 22, 0.12mg i.v. (tail vein) twice weekly for 5 weeks",8.93%
same,"Tumor growth inhibition rate (TGI, %) at different days post-inoculation","A549 lung carcinoma [5]; Day 22, 0.14mg i.v. (tail vein) twice weekly for 5 weeks",12.37%
same,"Tumor growth inhibition rate (TGI, %) at different days post-inoculation","A549 lung carcinoma [5]; Day 25, 0.12mg i.v. (tail vein) twice weekly for 5 weeks",41.13%
same,"Tumor growth inhibition rate (TGI, %) at different days post-inoculation","A549 lung carcinoma [5]; Day 25, 0.14mg i.v. (tail vein) twice weekly for 5 weeks",44.37%
same,"Tumor growth inhibition rate (TGI, %) at different days post-inoculation","A549 lung carcinoma [5]; Day 29, 0.08mg i.v. (tail vein) twice weekly for 5 weeks",2.07%
same,"Tumor growth inhibition rate (TGI, %) at different days post-inoculation","A549 lung carcinoma [5]; Day 29, 0.12mg i.v. (tail vein) twice weekly for 5 weeks",34.27%
same,"Tumor growth inhibition rate (TGI, %) at different days post-inoculation","A549 lung carcinoma [5]; Day 29, 0.14mg i.v. (tail vein) twice weekly for 5 weeks",31.80%
same,"Tumor growth inhibition rate (TGI, %) at different days post-inoculation","A549 lung carcinoma [5]; Day 32, 0.08mg i.v. (tail vein) twice weekly for 5 weeks",13.19%
same,"Tumor growth inhibition rate (TGI, %) at different days post-inoculation","A549 lung carcinoma [5]; Day 32, 0.12mg i.v. (tail vein) twice weekly for 5 weeks",33.27%
same,"Tumor growth inhibition rate (TGI, %) at different days post-inoculation","A549 lung carcinoma [5]; Day 32, 0.14mg i.v. (tail vein) twice weekly for 5 weeks",24.63%
same,T/C,A549 lung carcinoma [5]; [10],greater than 40%
same,tumor growth inhibition rate (calculated on the basis of tumor weight and tumor volume),A549 lung carcinoma [5]; [10],less than 60%
same,Body-weight difference (g) between Day 32 and Day 5,[6]; 0.08mg i.v. (tail vein) twice weekly for 5 weeks,6.3 g
same,Body-weight difference (g) between Day 32 and Day 5,[6]; 0.12mg i.v. (tail vein) twice weekly for 5 weeks,6.1 g
same,Body-weight difference (g) between Day 32 and Day 5,[6]; 0.14mg i.v. (tail vein) twice weekly for 5 weeks,0.2 g
same,Body-weight difference (g) between Day 23 and Day 5,[7],-3.84 g
